{
  "source": "patent EP4768032A1",
  "about": "“RAGE-TARGETED RNAI AGENT AND PHARMACEUTICAL USE THEREOF” (Tuojie Biotech (Shanghai) Co., Ltd., priority 2023, dated 2025)",
  "data": [
    {"system": "human RAGE", "assay": "psiCHECK on-target activity at 9 concentration points in HEK293A cells, dual-luciferase reporter (Example 8)", "type": "cell-based", "conditions": "psiCHECK system, Table 9", "text": "As used herein, the term \"inhibit\" is used interchangeably with \"decrease\", \"silence\", \"down-regulate\", \"repress\", and other similar terms, and includes any level of inhibition. Inhibition can be assessed in terms of a decrease in the absolute or relative level of one or more of these variables relative to a control level. The control level can be any type of control level used in the art, such as a pre-dose baseline level or a level determined from an untreated or control (e.g., buffer-only control or inert agent control) treated subject, cell, or sample. […] The inhibition rate of target gene expression can be measured using a Dual-Glo® Luciferase Assay System: the Firefly chemiluminescence value (Fir) and the Renilla chemiluminescence value (Ren) are each read, and the relative value Ratio = Ren/Fir is calculated. In the present disclosure, the ratio of the remaining mRNA expression level (or residual activity%) = Ratio (RNAi agent-treated group)/Ratio (RNAi agent-free control group), and the inhibition rate (%) = 100% - remaining mRNA expression level (%).\nRNAi agents were subjected to an in vitro molecular-level simulation of on-target activity screening in HEK293A cells using 9 concentration gradients.\nHEK293A cells were cultured at 37 °C with 5% CO2 in a DMEM high-glucose culture medium containing 10% fetal bovine serum. 24 h prior to transfection, the HEK293A cells were seeded into a 96-well plate at a density of 1 × 10^4 cells per well, with each well containing 100 µL of the culture medium.\nThe cells were co-transfected with the RNAi agents and corresponding plasmids using Lipofectamine2000 (ThermoFisher, 11668019) according to the instructions, with 0.3 µL of Lipofectamine2000 used per well. The amount of plasmids for transfection was 20 ng per well. For on-target sequence plasmids, a total of 9 concentration points were set for the RNAi agents; the highest concentration point final concentration was 20 nM, and a 3-fold serial dilution was performed to obtain 20.0000 nM, 6.6667 nM, 2.2222 nM, 0.7407 nM, 0.2469 nM, 0.0823 nM, 0.0274 nM, 0.0091 nM, and 0.0030 nM. 24 h after transfection, the on-target levels were determined using a Dual-Luciferase Reporter Assay System (Promega, E2940). Table 9. The IC50 activity of RNAi agents in a psiCHECK system", "units": {"IC50": "nM"}, "values": [
      {"substance": "TJR103636-TJ-16: RNAi agent containing targeting ligand I-14: SS strand SEQ ID NO: 24, AS strand SEQ ID NO: 50 (sense CAGUCGGAGCUAAUGGUGA; antisense UCACCAUUAGCUCCGACUGCA; targeting ligand I-14 conjugated, modification pattern not given here)", "IC50": 0.287},
      {"substance": "TJR103638-TJ-16: RNAi agent containing targeting ligand I-14: SS strand SEQ ID NO: 26, AS strand SEQ ID NO: 52 (sense CCUUUUCUUUUUCCCUUGA; antisense UCAAGGGAAAAAGAAAAGGGA; targeting ligand I-14 conjugated, modification pattern not given here)", "IC50": 0.973},
      {"substance": "TJR103635-TJ-16: RNAi agent containing targeting ligand I-14: SS strand SEQ ID NO: 23, AS strand SEQ ID NO: 49 (sense AGAGGAGGAGCGUGCAGAA; antisense UUCUGCACGCUCCUCCUCUUC; targeting ligand I-14 conjugated, modification pattern not given here)", "IC50": 0.636},
      {"substance": "TJR103637-TJ-16: RNAi agent containing targeting ligand I-14: SS strand SEQ ID NO: 25, AS strand SEQ ID NO: 51 (sense CUUUUCUUUUUCCCUUGAA; antisense UUCAAGGGAAAAAGAAAAGGG; targeting ligand I-14 conjugated, modification pattern not given here)", "IC50": 0.83},
      {"substance": "TJR103633-TJ-16: RNAi agent containing targeting ligand I-14: SS strand SEQ ID NO: 21, AS strand SEQ ID NO: 47 (sense CUGUCAGCAUCAGCAUCAA; antisense UUGAUGCUGAUGCUGACAGCA; targeting ligand I-14 conjugated, modification pattern not given here)", "IC50": 0.343},
      {"substance": "TJR103634-TJ-16: RNAi agent containing targeting ligand I-14: SS strand SEQ ID NO: 22, AS strand SEQ ID NO: 48 (sense GACCAACUCUCUCCUGUAA; antisense UUACAGGAGAGAGUUGGUCUG; targeting ligand I-14 conjugated, modification pattern not given here)", "IC50": 0.378}
    ]}
  ]
}
